In patent US20230148184A1, “COMPOUNDS AND METHODS FOR MODULATING SPLICING” (REMIX THERAPEUTICS INC., priority 2020, published 2023):

Legend:
Type in all cases: cell-based
SMN2 CJ mRNA = assay: Gene panel canonical junction qPCR assay, SMN2; conditions: decrease in CJ mRNA levels, RT-qPCR
In short: (§1)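 A673 or K562 cells treated 24 h at 37 °C with 11-point 3-fold dilutions (top 10 uM final, DMSO ≤0.25%); lysates analysed by one-step RT-qPCR for canonical-junction mRNA. ΔCt vs GAPDH, GUSB or PPIA housekeeper, normalised to DMSO (ΔΔCt), converted to RQ via 2^(−ΔΔCt) and percentage response.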

HTT mRNA = assay: RT-qPCR splicing assay for HTT mRNA isoforms (canonical junction CJ and alternative junction AJ); conditions: A673 or K562 cell line, 24 hours compound treatment; for IC50: decrease in CJ mRNA; for AC50: increase in AJ mRNA
In short: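 A673 (DMEM, 10% FBS) or K562 (IMDM, 10% FBS) cells were treated 24 h at 37 °C with an 11-point 3-fold series, top dose 10 uM, DMSO ≤0.25%. In lysates, HTT CJ and AJ isoforms were quantified by one-step RT-qPCR and normalized to PPIA (A673) or GAPDH/GUSB (K562), at least in duplicate.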

Target C CJ mRNA = assay: Gene panel canonical junction qPCR assay, Target C; conditions: decrease in CJ mRNA levels, RT-qPCR
In short: as §1

HTT CJ mRNA = assay: Gene panel canonical junction qPCR assay, HTT; conditions: decrease in CJ mRNA levels, RT-qPCR
In short: as §1

SMILES	IC50 (SMN2 CJ mRNA) [nM]	IC50 (HTT mRNA) [nM]	AC50 (HTT mRNA) [nM]	IC50 (Target C CJ mRNA) [nM]	IC50 (HTT CJ mRNA) [nM]
c1cnn(-c2ccc3c(c2)COc2nc(N4CCCC5(CNC5)C4)ccc2-3)c1 [Compound 181]	> 10000	> 10000	> 10000	> 10000	> 10000
CN(c1ccc2c(n1)OCCc1cc(-c3cn[nH]c3)ccc1-2)C1CC(C)(C)NC(C)(C)C1 [Compound 145]	1000 to 10000	> 10000	> 10000	1000 to 10000	> 10000
CN(c1ccc2c(n1)OCc1cc(-c3cn[nH]c3)ccc1-2)[C@@H]1C[C@H]2CC[C@@H](C1)N2 [Compound 108, (1R,5S)—N-Methyl-N-[8-(1H-pyrazol-4-yl)-6H-isochromeno[3,4-b]pyridin-3-yl]-8-azabicyclo [3.2.1] octan-3-amine]	< 100	< 100	< 100	< 100	< 100
c1cnn(-c2ccc3c(c2)COc2nc(NC4CNC4)ccc2-3)c1 [Compound 166]	1000 to 10000	> 10000	> 10000	> 10000	> 10000
CN(c1ccc2c(n1)OCc1cc(-c3cn[nH]c3)ccc1-2)C1CC(C)(C)NC(C)(C)C1 [Compound 147, N,2,2,6,6-pentamethyl-N-[8-(1H-pyrazol-4-yl)-6H-isochromeno[3,4-b]pyridin-3-yl]piperidin-4-amine]	> 10000	100 to 1000	100 to 1000	100 to 1000	100 to 1000
[2H]C([2H])([2H])N(c1ccc2c(n1)OCc1cc(-n3cccn3)ccc1-2)[C@@H]1C[C@H]2CCC[C@@H](C1)N2 [Compound 200]	< 100	< 100	< 100	100 to 1000	< 100
CN(C)[C@H]1[C@@H]2CN(c3ccc4c(n3)OCc3cc(-n5cccn5)ccc3-4)C[C@@H]21 [Compound 197]	> 10000	1000 to 10000	> 10000	> 10000	1000 to 10000
c1cnn(-c2ccc3c(c2)COc2nc(O[C@@H]4C[C@H]5CC[C@@H](C4)N5)ccc2-3)c1 [Compound 188]	100 to 1000	100 to 1000	100 to 1000	1000 to 10000	100 to 1000
c1cc2c(cc1-c1cn[nH]c1)COc1nc(N[C@@H]3C[C@H]4CC[C@@H](C3)N4)cnc1-2 [Compound 143, (exo)-N-[8-(1H-pyrazol-4-yl)-6H-isochromeno[3,4-b]pyrazin-3-yl]-8-azabicyclo[3.2.1]octan-3-amine]	100 to 1000	100 to 1000	100 to 1000	100 to 1000	100 to 1000
c1cnn(-c2ccc3c(c2)COc2nc(N4CCC5(CCCNC5)C4)ccc2-3)c1 (centres unmarked) [Compound 183]	100 to 1000	> 10000	> 10000	> 10000	> 10000
CN(c1ccc2c(n1)OCc1cc(-n3ccnn3)ccc1-2)[C@@H]1C[C@H]2CC[C@@H](C1)N2 [Compound 152]	< 100	100 to 1000	< 100	100 to 1000	100 to 1000
CN1C[C@@H]2CN(c3ccc4c(n3)OCc3cc(-n5cccn5)ccc3-4)C[C@@H]2C1 [Compound 170]	1000 to 10000	1000 to 10000	1000 to 10000	> 10000	1000 to 10000
c1cnn(-c2ccc3c(c2)COc2nc(N4CCC5(CC4)CNC5)ccc2-3)c1 [Compound 169]	100 to 1000	100 to 1000	100 to 1000	100 to 1000	100 to 1000
c1cnn(-c2ccc3c(c2)COc2nc(N4CC5(CCCNC5)C4)ccc2-3)c1 [Compound 168]	> 10000	> 10000	> 10000	> 10000	> 10000
CN(c1ccc2c(n1)OCc1cc(-n3cccn3)ccc1-2)C1CCNCC1 [Compound 175]	1000 to 10000	> 10000	1000 to 10000	> 10000	> 10000
CN(c1ccc2c(n1)OCc1cc(-c3cnn(C)c(=O)c3)ccc1-2)[C@@H]1C[C@H]2CC[C@@H](C1)N2 [Compound 160]	< 100	< 100	< 100	< 100	< 100
c1cnn(-c2ccc3c(c2)COc2nc(OC4CCNCC4)ccc2-3)c1 [Compound 187]	1000 to 10000	1000 to 10000	> 10000	> 10000	1000 to 10000
c1cnn(-c2ccc3c(c2)COc2nc(N4CCC5(CCNC5)CC4)ccc2-3)c1 [Compound 184]	1000 to 10000	1000 to 10000	1000 to 10000	1000 to 10000	1000 to 10000
CN(c1ccc2c(n1)OCc1cc(-n3cccn3)ccc1-2)[C@@H]1C[C@H]2CC[C@@H](C1)N2 [Compound 149, (exo)-N-methyl-N-[8-(pyrazol-1-yl)-6H-isochromeno[3,4-b]pyridin-3-yl]-8-azabicyclo[3.2.1]octan-3-amine]	100 to 1000	100 to 1000	< 100	100 to 1000	100 to 1000
CN(c1ccc2c(n1)OCc1cc(-n3nccn3)ccc1-2)[C@@H]1C[C@H]2CC[C@@H](C1)N2 [Compound 151]	< 100	< 100	< 100	100 to 1000	< 100
CN1C[C@@H]2[C@H](C1)[C@H]2N(C)c1ccc2c(n1)OCc1cc(-n3cccn3)ccc1-2 [Compound 196]	> 10000	> 10000	> 10000	> 10000	> 10000
c1cnn(-c2ccc3c(c2)COc2nc(N4CCCC5(CCNC5)C4)ccc2-3)c1 (centres unmarked) [Compound 192]	> 10000	> 10000	> 10000	> 10000	> 10000
CN(c1ccc2c(n1)OCc1cc(-c3ccn(C)c(=O)c3)ccc1-2)[C@@H]1C[C@H]2CC[C@@H](C1)N2 [Compound 153]	< 100	< 100	< 100	< 100	< 100
c1cnn(-c2ccc3c(c2)COc2nc(NC4CCNCC4)ccc2-3)c1 [Compound 174]	1000 to 10000	> 10000	> 10000	> 10000	> 10000
CCN(c1ccc2c(n1)OCc1cc(-n3cccn3)ccc1-2)C1CC(C)(C)NC(C)(C)C1 [Compound 189]	1000 to 10000	> 10000	1000 to 10000	> 10000	> 10000
c1cnn(-c2ccc3c(c2)OCc2nc(N[C@@H]4C[C@H]5CC[C@@H](C4)N5)ccc2-3)c1 [Compound 135, (1R,3S,5S)—N-[8-(pyrazol-1-yl)-5H-chromeno[3,4-b]pyridin-3-yl]-8-azabicyclo[3.2.1]octan-3-amine]	1000 to 10000	1000 to 10000	1000 to 10000	1000 to 10000	1000 to 10000
c1cnn(-c2ccc3c(c2)COc2nc(N[C@@H]4C[C@H]5CC[C@@H](C4)N5)ccc2-3)c1 [Compound 179]	100 to 1000	100 to 1000	100 to 1000	100 to 1000	100 to 1000
CCN(c1ccc2c(n1)OCc1cc(-n3cccn3)ccc1-2)C1CCNCC1 [Compound 177]	> 10000	> 10000	> 10000	> 10000	> 10000
